Assay results from ChEMBL document CHEMBL1146889, “Homo-cysteinyl peptide inhibitors of the L1 metallo-beta-lactamase, and SAR as determined by combinatorial library synthesis” (Bioorg Med Chem Lett, 2006).

How the values were obtained:
[1] = target: Beta-lactamase L1 (Stenotrophomonas maltophilia) (UniProt P52700); experiment: Inhibition of Stenotrophomonas maltophilia L1 metallo beta lactamase at 200 uM
Beta-lactamase L1 = Beta-lactamase L1 (Stenotrophomonas maltophilia, UniProt P52700); experiment: Inhibition of Stenotrophomonas maltophilia L1 metallo beta lactamase
Chain of Beta-lactamase L1 (P52700 whole entry): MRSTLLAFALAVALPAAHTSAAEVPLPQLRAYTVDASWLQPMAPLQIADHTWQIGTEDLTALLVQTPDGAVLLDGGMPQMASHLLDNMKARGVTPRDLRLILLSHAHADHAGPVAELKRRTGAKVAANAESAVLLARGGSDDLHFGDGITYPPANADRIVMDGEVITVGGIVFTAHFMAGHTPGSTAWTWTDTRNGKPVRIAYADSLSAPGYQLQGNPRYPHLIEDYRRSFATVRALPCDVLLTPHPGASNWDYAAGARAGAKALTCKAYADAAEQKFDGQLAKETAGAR

Chain of Beta-lactamase L1 (Stenotrophomonas maltophilia) (P52700 34-290 limits assumed): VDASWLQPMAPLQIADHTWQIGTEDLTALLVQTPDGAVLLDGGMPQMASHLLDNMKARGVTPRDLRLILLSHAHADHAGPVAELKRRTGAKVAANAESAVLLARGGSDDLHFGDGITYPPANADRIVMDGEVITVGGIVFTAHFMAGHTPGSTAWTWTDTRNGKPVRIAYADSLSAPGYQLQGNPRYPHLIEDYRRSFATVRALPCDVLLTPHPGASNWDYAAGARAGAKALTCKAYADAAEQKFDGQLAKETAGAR

Structure (SMILES)	inhibition [1] [%]	Ki (Beta-lactamase L1) [nM]
Cc1cc(C(=O)NC(CCS)C(=O)N[C@H](Cc2ccccc2)C(=O)O)cc(C)c1O (some centres not stated)	81	540
C[Si](C)(C)CCC(=O)NC(CCS)C(=O)N[C@H](Cc1ccccc1)C(=O)O (some centres not stated)	81	520
CCCCCCCC(=O)NC(CCS)C(=O)N[C@H](Cc1ccccc1)C(=O)O (some centres not stated)	41	–
O=C(NC(CCS)C(=O)N[C@H](Cc1ccccc1)C(=O)O)C1CCC1 (some centres not stated)	0	–
O=C(NC(CCS)C(=O)N[C@H](Cc1ccccc1)C(=O)O)c1cc2cccc([N+](=O)[O-])c2[nH]1 (some centres not stated)	81	150
O=C(NC(CCS)C(=O)N[C@H](Cc1ccccc1)C(=O)O)c1cc[nH]c1 (some centres not stated)	41	–
O=C(Cc1ccsc1)NC(CCS)C(=O)N[C@H](Cc1ccccc1)C(=O)O (some centres not stated)	41	–
CC(C)CC(=O)NC(CCS)C(=O)N[C@H](Cc1ccccc1)C(=O)O (some centres not stated)	21	–
O=C(NC(CCS)C(=O)N[C@H](Cc1ccccc1)C(=O)O)c1ccco1 (some centres not stated)	41	–
NC(=O)CCC(=O)NC(CCS)C(=O)N[C@H](Cc1ccccc1)C(=O)O (some centres not stated)	41	–
O=C(NC(CCS)C(=O)N[C@H](Cc1ccccc1)C(=O)O)c1ccc([N+](=O)[O-])c(O)c1 (some centres not stated)	61	–
O=C(NC(CCS)C(=O)N[C@H](Cc1ccccc1)C(=O)O)c1cnccn1 (some centres not stated)	61	–
O=C(NC(CCS)C(=O)N[C@H](Cc1ccccc1)C(=O)O)c1ccc([N+](=O)[O-])cc1 (some centres not stated)	41	–
O=C(COc1ccccc1)NC(CCS)C(=O)N[C@H](Cc1ccccc1)C(=O)O (some centres not stated)	61	–
O=C(NC(CCS)C(=O)N[C@H](Cc1ccccc1)C(=O)O)c1ccno1 (some centres not stated)	61	–
C=C(C)C(=O)NC(CCS)C(=O)N[C@H](Cc1ccccc1)C(=O)O (some centres not stated)	61	–
O=C(Cc1ccccc1)NC(CCS)C(=O)N[C@H](Cc1ccccc1)C(=O)O (some centres not stated)	61	–
C=C(C(=O)NC(CCS)C(=O)N[C@H](Cc1ccccc1)C(=O)O)C(F)(F)F (some centres not stated)	61	–
O=C(CCC1CCCCC1)NC(CCS)C(=O)N[C@H](Cc1ccccc1)C(=O)O (some centres not stated)	81	780
O=C(Cc1cc([N+](=O)[O-])ccc1Cl)NC(CCS)C(=O)N[C@H](Cc1ccccc1)C(=O)O (some centres not stated)	81	780

Structure (SMILES)	inhibition [1] [%]	Ki (Beta-lactamase L1) [nM]
O=C(O)CCCCC(=O)NC(CCS)C(=O)N[C@H](Cc1ccccc1)C(=O)O (some centres not stated)	41	–
O=C(NC(CCS)C(=O)N[C@H](Cc1ccccc1)C(=O)O)c1cc2cc(Cl)ccc2[nH]1 (some centres not stated)	81	200
O=C(CC12CC3CC(CC(C3)C1)C2)NC(CCS)C(=O)N[C@H](Cc1ccccc1)C(=O)O (some centres not stated)	61	–
CCCC(=O)NC(CCS)C(=O)N[C@H](Cc1ccccc1)C(=O)O (some centres not stated)	41	–
O=C(NC(CCS)C(=O)N[C@H](Cc1ccccc1)C(=O)O)c1cccnc1S (some centres not stated)	61	–
NC(=O)[C@@H](Cc1ccccc1)NC(=O)C(CCS)NC(=O)c1cc(O)cc(C(=O)O)c1 (single isomer, unassigned; diastereomer 1)	–	2.1
O=C(NC(CCS)C(=O)N[C@H](Cc1ccccc1)C(=O)O)c1ccccc1[N+](=O)[O-] (some centres not stated)	61	–
O=C(O)c1cccc(C(=O)NC(CCS)C(=O)N[C@H](Cc2ccccc2)C(=O)O)n1 (stereo in doubt; 84) [listing 1 of 2 here]	81	–
O=C(NC(CCS)C(=O)N[C@H](Cc1ccccc1)C(=O)O)c1cccnc1 (some centres not stated)	61	–
O=C(NC(CCS)C(=O)N[C@H](Cc1ccccc1)C(=O)O)c1ccoc1 (some centres not stated)	41	–
CO/N=C(/C(=O)NC(CCS)C(=O)N[C@H](Cc1ccccc1)C(=O)O)c1csc(NC=O)n1 (some centres not stated)	41	–
Cc1nocc1C(=O)NC(CCS)C(=O)N[C@H](Cc1ccccc1)C(=O)O (some centres not stated)	61	–
Cc1ccc(C(=O)NC(CCS)C(=O)N[C@H](Cc2ccccc2)C(=O)O)c(O)n1 (some centres not stated)	61	–
C=CCCC(=O)NC(CCS)C(=O)N[C@H](Cc1ccccc1)C(=O)O (some centres not stated)	41	–
CC(C)C(=O)NC(CCS)C(=O)N[C@H](Cc1ccccc1)C(=O)O (some centres not stated)	41	–
NC(=O)[C@@H](Cc1ccccc1)NC(=O)C(CCS)NC(=O)c1cc(O)cc(C(=O)O)c1 (single isomer, unassigned)	–	130
O=C(CO)NC(CCS)C(=O)N[C@H](Cc1ccccc1)C(=O)O (some centres not stated)	41	–
Cc1cn(C)c(CC(=O)NC(CCS)C(=O)N[C@H](Cc2ccccc2)C(=O)O)c1C(=O)O (some centres not stated)	41	–
O=C(NC(CCS)C(=O)N[C@H](Cc1ccccc1)C(=O)O)c1ccc2cc[nH]c2c1 (some centres not stated)	41	–
O=C(/C=C\c1c[nH]c2ccccc12)NC(CCS)C(=O)N[C@H](Cc1ccccc1)C(=O)O (some centres not stated)	21	–

Structure (SMILES)	inhibition [1] [%]	Ki (Beta-lactamase L1) [nM]
O=C(O)CCC(=O)NC(CCS)C(=O)N[C@H](Cc1ccccc1)C(=O)O (some centres not stated)	41	–
CC(=O)CCC(=O)NC(CCS)C(=O)N[C@H](Cc1ccccc1)C(=O)O (some centres not stated)	41	–
O=C(O)c1cc(O)cc(C(=O)NC(CCS)C(=O)N[C@H](Cc2ccccc2)C(=O)O)c1 (stereo in doubt; 96)	–	140
O=C(N[C@H](Cc1ccccc1)C(=O)O)C(CCS)NC(=O)C12CC3CC(CC(C3)C1)C2 (some centres not stated)	61	–
O=C(Cc1ccc(Br)cc1)NC(CS)C(=O)N[C@H](Cc1ccccc1)C(=O)O (some centres not stated)	–	3670
CCCCc1ccc(C(=O)NC(CCS)C(=O)N[C@H](Cc2ccccc2)C(=O)O)nc1 (stereo in doubt; 91) [listing 1 of 2 here]	–	230
Cc1ccc(C(=O)NC(CCS)C(=O)N[C@H](Cc2ccccc2)C(=O)O)s1 (some centres not stated)	41	–
C=Cc1ccc(C(=O)NC(CCS)C(=O)N[C@H](Cc2ccccc2)C(=O)O)cc1 (some centres not stated)	61	–
C/C=C\C=C\C(=O)NC(CCS)C(=O)N[C@H](Cc1ccccc1)C(=O)O (some centres not stated)	41	–
O=C(O)c1cccnc1C(=O)NC(CCS)C(=O)N[C@H](Cc1ccccc1)C(=O)O (some centres not stated)	41	–
Cc1ccc(C(=O)NC(CCS)C(=O)N[C@H](Cc2ccccc2)C(=O)O)c(Cl)n1 (some centres not stated)	61	–
Cc1ccccc1C(=O)NC(CCS)C(=O)N[C@H](Cc1ccccc1)C(=O)O (some centres not stated)	61	–
O=C(O)c1ccc(C(=O)NC(CCS)C(=O)N[C@H](Cc2ccccc2)C(=O)O)cc1 (some centres not stated)	61	–
O=C(NC(CCS)C(=O)N[C@H](Cc1ccccc1)C(=O)O)c1ccc2[nH]ccc2c1 (some centres not stated)	61	–
CCCCc1ccc(C(=O)NC(CCS)C(=O)N[C@H](Cc2ccccc2)C(=O)O)nc1 (stereo in doubt; 6)	–	230
O=C(Cc1cccc2ccccc12)NC(CCS)C(=O)N[C@H](Cc1ccccc1)C(=O)O (some centres not stated)	61	–
O=C(Cc1c[nH]c2ccccc12)NC(CCS)C(=O)N[C@H](Cc1ccccc1)C(=O)O (some centres not stated)	61	–
O=C(NC(CCS)C(=O)N[C@H](Cc1ccccc1)C(=O)O)c1ccccc1-c1ccccc1 (some centres not stated)	41	–
O=C(O)c1cccc(C(=O)NC(CCS)C(=O)N[C@H](Cc2ccccc2)C(=O)O)n1 (stereo in doubt; 84) [listing 2 of 2 here]	–	12
NC(=O)[C@@H](Cc1ccccc1)NC(=O)C(CCS)NC(=O)c1cccc(C(=O)O)n1 (some centres not stated)	–	26

Next, values leading:

inhibition [1] [%]	Ki (Beta-lactamase L1) [nM]	Structure (SMILES)
41	–	O=C(Cc1cccs1)NC(CCS)C(=O)N[C@H](Cc1ccccc1)C(=O)O (some centres not stated)
41	–	O=C(NC(CCS)C(=O)N[C@H](Cc1ccccc1)C(=O)O)c1ccsc1 (some centres not stated)
–	880	CCCCc1ccc(C(=O)NC(CS)C(=O)N[C@H](Cc2ccccc2)C(=O)O)nc1 (some centres not stated)
41	–	O=C(CC(c1ccccc1)c1ccccc1)NC(CCS)C(=O)N[C@H](Cc1ccccc1)C(=O)O (some centres not stated)
61	–	O=C(NC(CCS)C(=O)N[C@H](Cc1ccccc1)C(=O)O)C1CCCC1 (some centres not stated)
81	290	O=C(NC(CCS)C(=O)N[C@H](Cc1ccccc1)C(=O)O)c1cc2ccccc2[nH]1 (some centres not stated)
61	–	O=C(NC(CCS)C(=O)N[C@H](Cc1ccccc1)C(=O)O)c1cc2ccccc2s1 (some centres not stated)
41	–	O=C(NC(CCS)C(=O)N[C@H](Cc1ccccc1)C(=O)O)c1ccccc1C(=O)c1ccccc1 (some centres not stated)
21	–	O=C(/C=C\c1ccco1)NC(CCS)C(=O)N[C@H](Cc1ccccc1)C(=O)O (some centres not stated)
61	–	Cc1ccsc1C(=O)NC(CCS)C(=O)N[C@H](Cc1ccccc1)C(=O)O (some centres not stated)
41	–	CC(=O)Oc1ccccc1C(=O)NC(CCS)C(=O)N[C@H](Cc1ccccc1)C(=O)O (some centres not stated)
41	–	O=C(CCc1cccnc1)NC(CCS)C(=O)N[C@H](Cc1ccccc1)C(=O)O (some centres not stated)
61	–	O=C(NC(CCS)C(=O)N[C@H](Cc1ccccc1)C(=O)O)C1CCCCC1 (some centres not stated)
41	–	Cn1cccc1C(=O)NC(CCS)C(=O)N[C@H](Cc1ccccc1)C(=O)O (some centres not stated)
81	–	O=C(NC(CCS)C(=O)N[C@H](Cc1ccccc1)C(=O)O)c1cnc(O)c(Cl)c1 (some centres not stated)
–	5.8	NC(=O)[C@@H](Cc1ccccc1)NC(=O)C(CCS)NC(=O)c1cc(O)cc(C(=O)O)c1 (stereo in doubt; 95)
41	–	O=C(NC(CCS)C(=O)N[C@H](Cc1ccccc1)C(=O)O)c1cccc(O)c1 (some centres not stated)
–	120	O=C(O)c1cccc(C(=O)NC(CCS)C(=O)N[C@H](Cc2ccccc2)C(=O)O)n1 (stereo in doubt; 94)
81	–	O=C(O)c1cc(O)cc(C(=O)NC(CCS)C(=O)N[C@H](Cc2ccccc2)C(=O)O)c1 (stereo in doubt; 49) [listing 1 of 2 here]
41	–	O=C(NC(CCS)C(=O)N[C@H](Cc1ccccc1)C(=O)O)c1cccs1 (some centres not stated)
–	260	O=C(NC(CCS)C(=O)N[C@H](Cc1ccccc1)C(=O)O)c1c[nH]c(=O)c(Cl)c1 (some centres not stated)
61	–	O=C(N[C@H](Cc1ccccc1)C(=O)O)C(CCS)NC(=O)C(c1ccccc1)c1ccccc1 (some centres not stated)
41	–	O=C(Cc1c[nH]cn1)NC(CCS)C(=O)N[C@H](Cc1ccccc1)C(=O)O (some centres not stated)
–	140	O=C(O)c1cc(O)cc(C(=O)NC(CCS)C(=O)N[C@H](Cc2ccccc2)C(=O)O)c1 (stereo in doubt; 49) [listing 2 of 2 here]
81	–	CCCCc1ccc(C(=O)NC(CCS)C(=O)N[C@H](Cc2ccccc2)C(=O)O)nc1 (stereo in doubt; 91) [listing 2 of 2 here]
41	–	Nc1nc(CC(=O)NC(CCS)C(=O)N[C@H](Cc2ccccc2)C(=O)O)cs1 (some centres not stated)
61	–	CC(=O)Nc1cccc(C(=O)NC(CCS)C(=O)N[C@H](Cc2ccccc2)C(=O)O)c1 (some centres not stated)
41	–	Cc1occc1C(=O)NC(CCS)C(=O)N[C@H](Cc1ccccc1)C(=O)O (some centres not stated)
41	–	O=C(CC(O)C(=O)O)NC(CCS)C(=O)N[C@H](Cc1ccccc1)C(=O)O (some centres not stated)
41	–	O=C(NC(CCS)C(=O)N[C@H](Cc1ccccc1)C(=O)O)c1ccccc1O (some centres not stated)
